Test results taken from patent US8124624B2, “Substituted sulfonamide compounds” (Gruenenthal GmbH, priority 2008, dated 2012).

Assays:
[1] = target: T1, B1R of the rat (Rattus norvegicus, UniProt P97583); test: FLIPR Ca2+ influx assay, B1R antagonism, rat (rB1R CHO K1 cells); assay type: cell-based; conditions: test substance 10 μM, CHO K1 cells stably transfected with rat B1R, agonist Des-Arg9-bradykinin at EC80, % inhibition compared with maximum achievable inhibition; for inhibition at 10 µM: read-out: B1R antagonism, rat [10 μM] % inhibition
T1 construct: expressed in transfected cells; host or cells: CHO K1 cells (rB1R cells)
T1 sequence (P97583 1-337): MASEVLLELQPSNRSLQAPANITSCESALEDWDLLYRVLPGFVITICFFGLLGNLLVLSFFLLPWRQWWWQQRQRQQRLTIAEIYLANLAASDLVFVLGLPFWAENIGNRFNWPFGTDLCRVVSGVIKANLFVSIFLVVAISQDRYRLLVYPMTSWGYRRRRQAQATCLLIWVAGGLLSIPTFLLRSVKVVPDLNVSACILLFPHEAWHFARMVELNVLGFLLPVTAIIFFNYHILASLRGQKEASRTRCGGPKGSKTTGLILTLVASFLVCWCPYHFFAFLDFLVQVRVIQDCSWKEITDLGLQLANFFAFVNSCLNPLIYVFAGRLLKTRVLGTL
In short: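 CHO K1 cells stably expressing human or rat B1R were loaded with Fluo-4, and Ca^2+ fluorescence was read on a FLIPR. After 10–20 min with test substance, agonist was added at EC80: Lys-Des-Arg^9-bradykinin for hB1R, Des-Arg^9-bradykinin for rB1R. % inhibition is relative to maximal inhibition; IC50 from multiple concentrations, n=2–3, N≥2.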

[2] = target: T2, human B1R (Homo sapiens, UniProt P46663); test: FLIPR Ca2+ influx assay, B1R antagonism, human (hB1R CHO K1 cells); assay type: cell-based; conditions: test substance 10 μM, CHO K1 cells stably transfected with human B1R, agonist Lys-Des-Arg9-bradykinin at EC80, % inhibition compared with maximum achievable inhibition; for inhibition at 10 µM: read-out: B1R antagonism, human [10 μM] % inhibition
T2 construct: expressed in transfected cells; host or cells: CHO K1 cells (hB1R cells)
T2 sequence (P46663 1-353): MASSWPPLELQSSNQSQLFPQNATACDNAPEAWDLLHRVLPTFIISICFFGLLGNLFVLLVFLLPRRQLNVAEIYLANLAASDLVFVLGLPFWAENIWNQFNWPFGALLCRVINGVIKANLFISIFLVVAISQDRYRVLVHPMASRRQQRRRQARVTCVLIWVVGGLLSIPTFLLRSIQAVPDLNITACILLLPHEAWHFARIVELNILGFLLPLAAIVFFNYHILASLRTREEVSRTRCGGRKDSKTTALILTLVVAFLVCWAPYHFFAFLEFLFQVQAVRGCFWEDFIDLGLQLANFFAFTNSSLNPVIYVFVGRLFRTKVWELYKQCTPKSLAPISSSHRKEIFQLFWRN
Procedure: The agonistic or antagonistic action of substances can be quantified on the bradykinin receptor 1 (B1R) of the species human and rat using ectopically expressing cell lines (CHO K1 cells) and with the aid of a Ca^2+-sensitive dye (Fluo-4) using a fluorescent imaging plate reader (FLIPR). The indication in % activation is based on the Ca^2+ signal after addition of Lys-Des-Arg^9-bradykinin (0.5 nM) or Des-Arg^9-bradykinin (100 nM). Antagonists lead to suppression of the Ca^2+ influx after the addition of the agonist. % Inhibition compared with the maximum achievable inhibition is indicated.
The agonistic or antagonistic action of substances can be determined on the bradykinin receptor 1 (B1R) of the species human and rat using the following assay. According to this assay, the Ca^2+ influx through the channel is quantified with the aid of a Ca^2+-sensitive dye (Fluo-4 type, Molecular Probes Europe BV, Leiden, Netherlands) using a Fluorescent Imaging Plate Reader (FLIPR, Molecular Devices, Sunnyvale, USA).
Chinese hamster ovary cells (CHO K1 cells) which have been stably transfected with the human B1R gene (hB1R cells) or with the B1R gene of the rat (rB1R cells) are used. For functional studies, the cells are plated out on black 96-well plates having a clear base (BD Biosciences, Heidelberg, Germany or Greiner, Frickenhausen, Germany) in a density of 20,000-35,000 cells/well. The cells are incubated overnight at 37° C. and with 5% CO2 in culture medium (hB1R cells: Nutrient Mixture Ham's F12, Gibco Invitrogen GmbH, Karlsruhe, Germany or DMEM, Sigma-Aldrich, Taufkirchen, Germany; rB1R cells: D-MEM/F12, Gibco Invitrogen GmbH, Karlsruhe, Germany), with 10 vol. % FBS (fetal bovine serum, Gibco Invitrogen GmbH, Karlsruhe, Germany or PAN Biotech GmbH, Aidenbach, Germany).
On the following day, the cells are loaded for 60 minutes at 37° C. with 2.13 μM Fluo-4 (Molecular Probes Europe BV, Leiden, Netherlands) in HBSS buffer (Hank's buffered saline solution, Gibco Invitrogen GmbH, Karlsruhe, Germany) […] (Sigma-Aldrich, Taufkirchen, Germany) and 10 mM HEPES (Sigma-Aldrich, Taufkirchen, Germany). The plates are then washed twice with HBSS buffer, and HBSS buffer additionally containing 0.1% BSA (bovine serum albumin; Sigma-Aldrich, Taufkirchen, Germany), 5.6 mM glucose and 0.05% gelatin (Merck KGaA, Darmstadt, Germany) is added to the plates. After incubation for a further 20 minutes at room temperature, the plates are inserted into the FLIPR for Ca^2+ measurement.
Alternatively, washing is carried out with buffer A (15 mM HEPES, 80 mM NaCl, 5 mM KCl, 1.2 mM CaCl2, 0.7 mM MgSO4, 2 g/l glucose, 2.5 mM probenecid) followed by loading with buffer A with added 2.5 μM Fluo-4 and 0.025% Pluronic F127 (Sigma-Aldrich, Taufkirchen, Germany). The cells are then washed twice with buffer A and incubated for 30 minutes at room temperature with buffer A additionally containing 0.05% BSA and 0.05% gelatin and are then inserted into the FLIPR for Ca^2+ measurement.
The Ca^2+-dependent fluorescence is measured before and after the addition of substances (λex=488 nm, λem=540 nm). Quantification is carried out by measuring the highest fluorescence intensity (FC, fluorescence counts) over time.
The FLIPR protocol consists of two substance additions. Test substances (10 μM) are first pipetted onto the cells and the Ca^2+ influx is compared with the control (hB1R: Lys-Des-Arg^9-bradykinin >=50 nM; rB1R: Des-Arg^9-bradykinin 10 μM). This gives the activation in %, based on the Ca^2+ signal after addition of Lys-Des-Arg^9-bradykinin (>=50 nM) or Des-Arg^9-bradykinin (10 μM). After 10-20 minutes' incubation, Lys-Des-Arg^9-bradykinin (hB1R) or Des-Arg^9-bradykinin (rB1R) is applied in the concentration of the EC80, and the influx of Ca^2+ is likewise determined. Antagonists lead to suppression of the Ca^2+ influx. The % inhibition compared with the maximum achievable inhibition is calculated. […]

| SMILES | inhibition at 10 µM [1] | inhibition at 10 µM [2] | B1R antagonism, rat [10 μM] % inhibition [1] | B1R antagonism, human [10 μM] % inhibition [2] |
| --- | --- | --- | --- | --- |
| Cc1cc(S(=O)(=O)N2CCCCC2CCC(=O)N2CCC(CCCN(C)C)(c3cccnc3)CC2)c(C)cc1Cl (centres unmarked) [Example 19, 3-(1-(4-Chloro-2,5-dimethylphenylsulfonyl)piperidin-2-yl)-1-(4-(3-(dimethylamino)propyl)-4-(pyridin-3-yl)piperidin-1-yl)propan-1-one] | 98% | 82% | – | – |
| CN(C)CCCC1(c2cccnc2)CCN(C(=O)CC(NS(=O)(=O)c2ccc3ccccc3c2)c2ccccc2)CC1 (centres unmarked) [Example 20, N-(3-(4-(3-(Dimethylamino)propyl)-4-(pyridin-3-yl)piperidin-1-yl)-3-oxo-1-phenylpropyl)naphthalene-2-sulfonamide] | 94% | 57% | – | – |
| CN(C)CCCC1(c2cccnc2)CCN(C(=O)COCC2CCc3ccccc3N2S(=O)(=O)c2ccc(Cl)c(Cl)c2)CC1 (centres unmarked) [Example 21, 2-((1-(3,4-Dichlorophenylsulfonyl)-1,2,3,4-tetrahydroquinolin-2-yl)methoxy)-1-(4-(3-(dimethylamino)propyl)-4-(pyridin-3-yl)piperidin-1-yl)ethanone] | 98% | 56% | – | – |
| COc1cc(C)c(S(=O)(=O)N(C)CCOCC(=O)N2CCC(CCCN(C)C)(c3cccnc3)CC2)c(C)c1 [Example 23, N-(2-(2-(4-(3-(Dimethylamino)propyl)-4-(pyridin-3-yl)piperidin-1-yl)-2-oxoethoxy)ethyl)-4-methoxy-N,2,6-trimethylbenzenesulfonamide] | 101% | 100% | – | – |
| COc1cc(C)c(S(=O)(=O)N2CCCC[C@H]2COCC(=O)N2CCC(CN3CCCC3)(c3cccnc3)CC2)c(C)c1 [Example 25, (S)-2-((1-(4-Methoxy-2,6-dimethylphenylsulfonyl)piperidin-2-yl)methoxy)-1-(4-(pyridin-3-yl)-4-(pyrrolidin-1-ylmethyl)piperidin-1-yl)ethanone] | 63% | 97% | – | – |
| COc1cc(C)c(S(=O)(=O)N2CCCCC2COCC(=O)N2CCC(CCCN3CCCC3)(c3cccnc3)CC2)c(C)c1 (centres unmarked) [Example 27, 2-[[1-[(4-Methoxy-2,6-dimethyl-phenyl)sulfonyl]-piperidin-2-yl]-methoxy]-1-[4-pyridin-3-yl-4-(3-pyrrolidin-1-yl-propyl)-piperidin-1-yl]-ethanone] | – | – | 102% | 100% |

Continued, values first:

| inhibition at 10 µM [1] | inhibition at 10 µM [2] | B1R antagonism, rat [10 μM] % inhibition [1] | B1R antagonism, human [10 μM] % inhibition [2] | SMILES |
| --- | --- | --- | --- | --- |
| 102% | 62% | – | – | O=C(COCC1CCc2ccccc2N1S(=O)(=O)c1ccc(Cl)c(Cl)c1)N1CCC(CCCN2CCCC2)(c2cccnc2)CC1 (centres unmarked) [Example 18, 2-((1-(3,4-Dichlorophenylsulfonyl)-1,2,3,4-tetrahydroquinolin-2-yl)methoxy)-1-(4-(pyridin-3-yl)-4-(3-(pyrrolidin-1-yl)propyl)piperidin-1-yl)ethanone] |
| 102% | 98% | – | – | COc1cc(C)c(S(=O)(=O)N2CCCCC2COCC(=O)N2CCC(CCCN(C)C)(c3cccnc3)CC2)c(C)c1 (centres unmarked) [Example 22, 1-(4-(3-(Dimethylamino)propyl)-4-(pyridin-3-yl)piperidin-1-yl)-2-((1-(4-methoxy-2,6-dimethylphenylsulfonyl)piperidin-2-yl)methoxy)ethanone] |
| 60% | 38% | – | – | CN(C)CCCC1(c2cccnc2)CCN(C(=O)CC2CCCCN2S(=O)(=O)c2cccc(C(F)(F)F)c2)CC1 (centres unmarked) [Example 24, 1-(4-(3-(Dimethylamino)propyl)-4-(pyridin-3-yl)piperidin-1-yl)-2-(1-(3-(trifluoromethyl)phenylsulfonyl)piperidin-2-yl)ethanone] |
| – | – | 103% | 100% | COc1cc(C)c(S(=O)(=O)N2CCCCC2COCC(=O)N2CCC(CCCN3CCCC3)(c3cccnc3)CC2)c(C)c1 (centres unmarked) [Example 26, 2-[[1-[(4-Methoxy-2,6-dimethyl-phenyl)sulfonyl]-piperidin-2-yl]-methoxy]-1-[4-pyridin-3-yl-4-(3-pyrrolidin-1-yl-propyl)-piperidin-1-yl]-ethanone] |
| – | – | 101% | 100% | COc1cc(C)c(S(=O)(=O)N(C)CCOCC(=O)N2CCC(CCCN3CCCC3)(c3cccnc3)CC2)c(C)c1 [Example 29, 4-Methoxy-N,2,6-trimethyl-N-[2-[2-oxo-2-[4-pyridin-3-yl-4-(3-pyrrolidin-1-yl-propyl)-piperidin-1-yl]-ethoxy]-ethyl]-benzenesulfonic acid amide] |
| 101% | 100% | – | – | COc1cc(C)c(S(=O)(=O)N(C)CCOCC(=O)N2CCC(CCCN3CCCC3)(c3cccnc3)CC2)c(C)c1C [Example 31, 4-Methoxy-N,2,3,6-tetramethyl-N-[2-[2-oxo-2-[4-pyridin-3-yl-4-(3-pyrrolidin-1-yl-propyl)-piperidin-1-yl]-ethoxy]-ethyl]-benzenesulfonic acid amide] |
| 103% | 100% | – | – | COc1cc(C)c(S(=O)(=O)N(CCOCC(=O)N2CCC(CCCN3CCCC3)(c3cccnc3)CC2)Cc2ccccc2)c(C)c1 [Example 37, N-Benzyl-4-Methoxy-2,6-dimethyl-N-[2-[2-oxo-2-[4-pyridin-3-yl-4-(3-pyrrolidin-1-yl-propyl)-piperidin-1-yl]-ethoxy]-ethyl]-benzenesulfonic acid amide] |
